Test results from patent US11434227B2, “Broad spectrum antibacterial activity of novel bisbenzimidazoles targeting topoisomerase IA and the synergistic composition of bisbenzimidazole with efflux pump inhibitors against pathogenic bacteria” (Jawaharlal Nehru University (JNU), priority 2016, dated 2022).
≈ marks a conversion by molar mass, not a printed value.

Columns and labels:
[1] = tested on: Acinetobacter baumannii (AB312); assay: Susceptibility (MIC50/MIC90), broth microdilution
Procedure: (§1) MICs were determined by the broth microdilution method according to CLSI methods (Clinical and Laboratory Standards Institute, 2005). Inoculants were incubated at 37° C. on cation adjusted Mueller Hinton (MH) Broth for 18 to 24 h. Compound were dissolved in media to 10 doubling dilutions from 128 to 0.125 μg/mL. All the bacterial strains were grown in 96 well plate with low evaporation lid (Falcon, Becton Dickinson) in presence of derivatives of benzimidazoles at 0.125, 0.25, 0.5, 1, 2, 4, 8, 16, 32, 64, 128, 256 μg/mL concentrations. […] Plates were read by Tecan Micro-plate Reader at 600 nm.

E. coli ATCC 25922 [2] = assay: Neutropenic thigh infection model
Procedure: The neutropenic mice thigh infection model, fully described by. Craig, was used in this study. Female Balb/c mice (6 mice per dosing group) weighing 20-25 g were rendered neutropenic with 2 intraperitoneal injections of cyclophosphamide (150 mg/kg of body weight 4 days prior to bacterial inoculation and 100 mg/kg 1 day before inoculation) 2 h prior to bacterial inoculation. […] Bacteria were injected into the right thigh of each mouse at time zero. […] Neutropenia was defined as an absolute neutrophil count of 500 polymorphonuclear leukocytes/cm^3 of blood. The bacterial suspension was diluted to a concentration of 10^6 CFU/mL with normal saline. Then, 0.1 mL of the bacterial suspension was injected into each posterior thigh muscle 2 h after the second dose of cyclophosphamide was administered. […] Twenty-four hours after drug treatment was begun, the mice were humanely sacrificed. Right thigh muscles from each mouse were aseptically collected, homogenized and serially diluted 1:10 in phosphate buffer saline, and processed for quantitative cultures.

[3] = tested on: Salmonella typhimurium (MTCC 1251); assay: Susceptibility (MIC50/MIC90), broth microdilution; settings: Salmonella enterica
Procedure: as §1

[4] = tested on: isogenic efflux deleted strains; assay: Susceptibility of isogenic efflux deleted strains versus wild type; format: cell-based, Escherichia coli; settings: in comparison to wild type strains
E. coli 81^R = assay: Susceptibility (MIC, PAE, MBC), broth microdilution; settings: Escherichia coli
Procedure: as §1

[5] = tested on: Klebsiella planticola (MTCC 2272); assay: Susceptibility (MIC50/MIC90), broth microdilution; settings: MTCC2272
Procedure: as §1

Providencia sp. (P592) = assay: HN12b in combination with efflux pump inhibitors (CB method, FICI)
Procedure: (§2) 96-well microtiter plates containing MIC25 concentrations of the Efflux pump inhibitor (CCCP, PAβN) and HN12b antimicrobial drugs alone and in CB combination were used. The MICs of the individual drugs HN12b, PAβN and CCCP (0.25 to 128 μg/ml) and of the combinations were determined using the broth microdilution technique as recommended by the CLSI. Briefly, the broth microdilution plates were inoculated with each test organism to yield the appropriate density (10^5 CFU/ml) in 100 μl Mueller-Hinton broth (MHB) and incubated for 24 h at 37° C. in ambient air. One well with no antibiotic was used as a positive growth control on each plate. Plates were read for visual turbidity, and results were recorded after 24 h of incubation at 37° C. in ambient air by using a magnifying mirror reader, as turbidity in wells indicated growth of the microorganism. The MIC was determined as the well in the microtiter plate with the lowest drug concentration at which there was no visible growth. […] MICAB was defined as the MIC of drug A in the presence of drug B; MICBA was defined as the MIC of drug B in the presence of drug A.
(§3) The fractional inhibitory concentration index (FICI) was calculated for each antibiotic in each combination by using the following formula: FICA+FICB=FICI, where FICA equals the MIC of drug A in combination divided by the MIC of drug A alone and FICB equals the MIC of drug B in combination divided by the MIC of drug B alone. The FICIs were interpreted as follows: FICI of ≤0.5 will correspond to synergy; FICI of >0.5 to ≤1 will correspond to additivity; FICI of >1 to ≤4 will correspond to no interaction (indifference), and FICI of >4 will correspond antagonism.

E. coli 132^R = assay: Susceptibility (MIC, PAE, MBC), broth microdilution; settings: Escherichia coli
Procedure: as §1

Enterococcus sp. (432) = assay: Susceptibility (MIC50/MIC90), broth microdilution
Procedure: as §1

[6] = tested on: Providencia sp. (MTCC 2102); assay: HN12b in combination with efflux pump inhibitors (CB method, FICI); settings: for FICI: Providencia sp. (MTCC 2102)
Procedure: as §2, §3

Enterococcus sp. (1121) [7] = assay: Susceptibility (MIC50/MIC90), broth microdilution
Procedure: as §1

[8] = tested on: E. coli K12 mutant ΔTopIA; assay: Susceptibility of E. coli K12 and mutants (MIC90); settings: Escherichia coli
Procedure: as §1

[9] = tested on: Pseudomonas aeruginosa (MTCC1688); assay: Susceptibility (MIC50/MIC90), broth microdilution
Procedure: as §1

[10] = tested on: efflux and porin genes (acrAB-tolC, emrAB-tolC, ompC, ompF) in E. coli K12 cells; assay: Gene expression analysis by real-time qPCR; format: cell-based, Escherichia coli; settings: E. coli K12 cells treated with ¼ MIC
[11] = tested on: Escherichia coli (ATCC 25922); assay: Susceptibility (MIC, PAE, MBC), broth microdilution; settings: Escherichia coli
Procedure: as §1

E. coli ATCC 25922 [12] = assay: Mouse systemic infection (septicemia) model; format: in vivo, Balb/c mice
Procedure: Female Balb/c mice weighing 20-25 g of 6-8 weeks old were injected with E. coli ATCC 25922 (0.5×10^8 CFU in 0.1 mL saline) intraperitoneally. […] Each treatment or control group had 10 mice. Mortality was recorded daily for 7 days post infection.

[13] = tested on: Acinetobacter baumannii (MTCC1920); assay: Susceptibility (MIC50/MIC90), broth microdilution
Procedure: as §1

A. baumannii (MTCC1920) = assay: HN12b in combination with efflux pump inhibitors (CB method, FICI)
Procedure: as §2, §3

P. aeruginosa (MTCC1688) = assay: as above
Procedure: as §2, §3

E. coli K12 mutant ΔacrA = assay: Susceptibility of E. coli K12 and mutants (MIC90); settings: Escherichia coli
Procedure: as §1

[14] = tested on: Pseudomonas aeruginosa (Ps162); assay: Susceptibility (MIC50/MIC90), broth microdilution
Procedure: as §1

Staphylococcus sp. (982) = assay: Susceptibility (MIC50/MIC90), broth microdilution
Procedure: as §1

Enterococcus sp. (1365) = assay: Susceptibility (MIC50/MIC90), broth microdilution
Procedure: as §1

[15] = tested on: E. coli K12 mutant ΔTopIB; assay: Susceptibility of E. coli K12 and mutants (MIC90); settings: Escherichia coli
Procedure: as §1

Staphylococcus sp. (976) = assay: Susceptibility (MIC50/MIC90), broth microdilution
Procedure: as §1

Enterococcus sp. (1121) [16] = assay: HN12b in combination with efflux pump inhibitors (CB method, FICI)
Procedure: as §2, §3

[17] = Providencia sp. (P592), HN12b + PAβN
[18] = ATCC25922, Escherichia coli (ATCC 25922), Table 2
[19] = A. baumannii (MTCC1920), HN12b + CCCP
[20] = P. aeruginosa (MTCC1688), HN12b + CCCP
[21] = Enterococcus sp. (1121), HN12b + CCCP

CCCN1CCN(c2nc3ccc(-c4nc5ccccc5[nH]4)cc3[nH]2)CC1 [HN12b, 2′-(4-propylpiperazine-1-yl)-1H, 3′H-2,5′-bibenzimidazole]
MIC50 [1]: 3.8 µg/mL (≈ 10.5 µM) | MIC90 [1]: 3.8 µg/mL (≈ 10.5 µM) | in vivo efficacy (E. coli ATCC 25922 [2]; Neutropenia thigh model, E. coli ATCC 25922): good in vivo efficacy | Dose at 1 log reduction (E. coli ATCC 25922 [2]; Neutropenic Thigh, ATCC25922): 3 mg/kg/bw/day | Dose at 3 log reduction (E. coli ATCC 25922 [2]; Neutropenic Thigh, ATCC25922): 5 mg/kg/bw/day | MIC50 [3]: < 0.25 µg/mL | MIC90 [3]: < 0.25 µg/mL | sensitisation of efflux deleted strains [4]: more sensitised | MBC (E. coli 81^R): 2 µg/mL (≈ 5.55 µM) | MIC50 (E. coli 81^R): 1 µg/mL (≈ 2.77 µM) | MIC90 (E. coli 81^R): 1.6 µg/mL (≈ 4.44 µM) | MIC50 [5]: 30 µg/mL (≈ 83.3 µM) | MIC90 [5]: 128 µg/mL (≈ 355 µM) | MIC90 (Providencia sp. (P592); Providencia): 58 µg/mL | FICI (Providencia sp. (P592); Providencia sp. (P592), HN12b + CCCP): 0.6 | FICI (Providencia sp. (P592); [17]): 0.4 | Interpretation (Providencia sp. (P592); [17]): Synergy (FICI of ≤0.5 will correspond to synergy) | MBC (E. coli 132^R): 4 µg/mL (≈ 11.1 µM) | MIC50 (E. coli 132^R): 2 µg/mL (≈ 5.55 µM) | MIC90 (E. coli 132^R): 3.5 µg/mL (≈ 9.71 µM) | MIC50 (Enterococcus sp. (432)): < 0.25 µg/mL | MIC90 (Enterococcus sp. (432)): 8.25 µg/mL (≈ 22.9 µM) | FICI ([6]; HN12b + CCCP): 0.6 | FICI ([6]; HN12b + PAβN): 1 | MIC90 ([6]; Providencia, MTCC2102): > 128 µg/mL | MIC50 (Enterococcus sp. (1121) [7]): < 0.25 µg/mL | MIC90 (Enterococcus sp. (1121) [7]): 8 µg/mL (≈ 22.2 µM) | MIC90 [8]: 2.8 µg/mL (≈ 7.77 µM) | MIC50 [9]: > 128 µg/mL | MIC90 [9]: 128 µg/mL (≈ 355 µM) | gene expression of efflux pumps and porins [10]: acrAB-tolC and emr AB-tolC activation and ompC and ompF down-regulation | MBC ([11]; ATCC25922): 4 µg/mL (≈ 11.1 µM) | MIC50 ([11]; ATCC25922, ATCC 25922): 0.2 µg/mL (≈ 0.555 µM) | MIC90 ([11]; ATCC25922, ATCC 25922): 3.3 µg/mL (≈ 9.15 µM) | MIC50 ([11]; ATCC25922, ATCC25922, Table 7): 0.2 ± 0.024 µg/mL (≈ 0.555 µM) | MIC50 [11, 18]: 8 µg/mL (≈ 22.2 µM) | MIC90 [11, 18]: 26.6 µg/mL (≈ 73.8 µM) | ED50 (E. coli ATCC 25922 [12]; Escherichia coli, iv, 168 h, Septicemia, ATCC25922, single i.v. bolus, survival over 7 days): 5 mg/kg | in vivo efficacy (E. coli ATCC 25922 [12]; Septicaemia model, E. coli ATCC 25922): good in vivo efficacy | MIC50 [13]: > 128 µg/mL | MIC90 [13]: 128 µg/mL (≈ 355 µM) | FICI (A. baumannii (MTCC1920); [19]): 0.5 | Interpretation (A. baumannii (MTCC1920); [19]): Synergy (FICI of ≤0.5 will correspond to synergy) | FICI (A. baumannii (MTCC1920); A. baumannii (MTCC1920), HN12b + PAβN): 0.9 | MIC90 (A. baumannii (MTCC1920); Acinetobacter baumannii, MTCC1920): > 128 µg/mL | FICI (P. aeruginosa (MTCC1688); [20]): 0.6 | Interpretation (P. aeruginosa (MTCC1688); [20]): Synergy (FICI of ≤0.5 will correspond to synergy) | FICI (P. aeruginosa (MTCC1688); P. aeruginosa (MTCC1688), HN12b + PAβN): 1 | MIC90 (P. aeruginosa (MTCC1688); Pseudomonas aeruginosa, MTCC1688): > 128 µg/mL | MIC90 (E. coli K12 mutant ΔacrA): 0.87 µg/mL (≈ 2.41 µM) | MIC50 [14]: 2.94 µg/mL (≈ 8.16 µM) | MIC90 [14]: 5.94 µg/mL (≈ 16.5 µM) | MIC50 (Staphylococcus sp. (982)): 0.44 µg/mL (≈ 1.22 µM) | MIC90 (Staphylococcus sp. (982)): 7.44 µg/mL (≈ 20.6 µM) | MIC50 (Enterococcus sp. (1365)): 0.25 µg/mL (≈ 0.694 µM) | MIC90 (Enterococcus sp. (1365)): 11.2 µg/mL (≈ 31.2 µM) | MIC90 [15]: 3.8 µg/mL (≈ 10.5 µM) | MIC50 (Staphylococcus sp. (976)): 0.31 µg/mL (≈ 0.86 µM) | MIC90 (Staphylococcus sp. (976)): 15.3 µg/mL (≈ 42.5 µM) | MIC90 (Enterococcus sp. (1121) [16]; Enterococcus): 8 µg/mL | FICI (Enterococcus sp. (1121) [16]; [21]): 0.5 | Interpretation (Enterococcus sp. (1121) [16]; [21]): Synergy (FICI of ≤0.5 will correspond to synergy) | FICI (Enterococcus sp. (1121) [16]; Enterococcus sp. (1121), HN12b + PAβN): 1
